# Patent US20200289474A1, “METHODS OF TREATING PAIN WITH A THIAZOLINE ANTI-HYPERALGESIC” (priority 2019, published 2020)
# How the values were obtained:
# [1] = solubility in organic/aqueous solvents; format: physicochemical
# PN-mediated cytotoxicity = assay: cell-based assays of PN-mediated cytotoxicity
# allodynia = assay: methylglyoxal-induced diabetic neuropathy model; format: in vivo; conditions: rat
# [2] = effect of food on oral bioavailability in rats; format: in vivo, rat
# Description: The effect of food on oral bioavailability was determined.
# [3] = dog pharmacokinetics, single PO (10 mg/kg) and IV (3 mg/kg) dose; format: in vivo
# Description: The objective of the first single dose non-GLP study in dogs was to determine the pharmacokinetics and bioavailability of Compound 1 after a single oral (gavage) or single intravenous (IV) dose in dogs. The test article formulation was administered to three male dogs orally via gavage at a dose level of 10 mg/kg (dosing volume of 2 mL/kg body weight). Following a wash-out period of a minimum of three days, the same three dogs were administered the test article formulation via an IV bolus push over approximately 1-2 minutes at a dose level of 3 mg/kg (dosing volume of 0.5 mL/kg). The vehicle for oral gavage dosing was 0.5% HPMC; the vehicle for IV injection was sterile phosphate buffered saline (PBS; pH 7.4). […] Animals were returned to quarantine after the last blood collection.
# [4] = dog single oral dose MTD study; format: in vivo; conditions: for Average Compound 1 Concentration in Dog Plasma: N = 2
# Description: Using a pyramiding dose schedule, dose levels of 250, 350 and 500 mg/kg were administered to 2 dogs/sex (after a washout period of at least three days, the same animals were dosed with the next dose level). The dose volume was 10 mL/kg body weight. The vehicle was 0.5% aqueous HPMC.
# stability in plasma = format: in vitro ADME; conditions: dog plasma
# OATP1B3 = target: T1, OATP1B3 (Homo sapiens, UniProt Q9NPD5); assay: transporter inhibition, HEK293 cells, probe accumulation; format: in vitro ADME
# T1 construct: expressed in transfected cells; host or cells: HEK293 cells
# T1 sequence (Q9NPD5 1-702): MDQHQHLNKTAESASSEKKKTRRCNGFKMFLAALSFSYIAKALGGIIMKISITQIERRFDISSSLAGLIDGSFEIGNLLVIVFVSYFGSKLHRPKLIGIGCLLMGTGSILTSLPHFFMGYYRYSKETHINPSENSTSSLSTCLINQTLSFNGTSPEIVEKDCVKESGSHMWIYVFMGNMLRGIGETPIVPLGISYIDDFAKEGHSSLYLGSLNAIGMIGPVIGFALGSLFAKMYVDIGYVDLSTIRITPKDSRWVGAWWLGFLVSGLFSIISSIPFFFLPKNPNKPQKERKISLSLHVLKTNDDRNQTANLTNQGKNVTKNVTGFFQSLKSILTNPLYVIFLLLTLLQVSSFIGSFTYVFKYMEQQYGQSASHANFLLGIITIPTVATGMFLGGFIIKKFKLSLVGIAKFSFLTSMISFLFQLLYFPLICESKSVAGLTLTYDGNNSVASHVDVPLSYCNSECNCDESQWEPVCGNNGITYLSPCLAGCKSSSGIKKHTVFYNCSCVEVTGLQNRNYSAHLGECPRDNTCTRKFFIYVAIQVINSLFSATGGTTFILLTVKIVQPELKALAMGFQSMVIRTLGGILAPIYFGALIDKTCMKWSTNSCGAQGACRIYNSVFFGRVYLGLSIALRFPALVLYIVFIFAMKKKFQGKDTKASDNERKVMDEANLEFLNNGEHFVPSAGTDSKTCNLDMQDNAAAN
# OAT3 = target: T2, OAT3 (Homo sapiens, UniProt Q8TCC7); assay: as above; format: in vitro ADME
# T2 construct: expressed in transfected cells; host or cells: HEK293 cells
# T2 sequence (Q8TCC7 1-542): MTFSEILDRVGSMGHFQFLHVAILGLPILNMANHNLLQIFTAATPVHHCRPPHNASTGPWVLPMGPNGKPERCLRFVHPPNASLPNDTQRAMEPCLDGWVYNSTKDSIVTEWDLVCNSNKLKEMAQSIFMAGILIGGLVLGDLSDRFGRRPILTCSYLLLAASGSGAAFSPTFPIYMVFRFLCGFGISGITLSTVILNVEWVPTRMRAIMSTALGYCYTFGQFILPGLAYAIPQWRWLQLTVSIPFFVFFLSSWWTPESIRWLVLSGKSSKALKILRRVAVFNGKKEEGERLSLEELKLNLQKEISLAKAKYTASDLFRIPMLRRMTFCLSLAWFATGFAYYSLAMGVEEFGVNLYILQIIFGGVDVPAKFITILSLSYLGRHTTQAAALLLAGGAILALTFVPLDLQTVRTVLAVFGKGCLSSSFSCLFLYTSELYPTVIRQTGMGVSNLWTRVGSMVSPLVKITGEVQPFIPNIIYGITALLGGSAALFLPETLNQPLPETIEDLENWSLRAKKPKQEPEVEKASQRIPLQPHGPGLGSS
# normal sensation = normal sensation in uninjured animals
# [5] = male dogs, 10 mg/kg oral gavage
smiles,measurement,setting,value
"CC1(C)SC(Nc2ccccc2O)=N[C@@H]1C(=O)O.Cl [Compound 1, (R)-2-(2-hydroxyphenylamino)-5,5-dimethyl-4,5-dihydrothiazole-4-carboxylic acid mono-hydrochloride]",solubility,"[1]; in 2-propanol, ethanol, 10% water: isopropyl acetate, 10% water/tetrahydrofuran, and water",sparingly soluble
same,solubility,[1]; in methanol and tert-butyl alcohol: water (1:1),freely soluble
same,solubility,"[1]; in n-heptane, toluene, acetone, tetrahydrofuran, ethyl acetate, isopropyl acetate, t-butyl methyl ether, t-butyl alcohol",less than sparingly soluble
same,effect in PN-mediated cytotoxicity,PN-mediated cytotoxicity,protective
same,"effect on allodynia, methylglyoxal-induced diabetic neuropathy",allodynia,alleviates allodynia
same,"peak plasma concentrations, fasted compared to fed",[2]; 10 mg/kg oral,significantly increased peak plasma concentrations
same,"differences in pharmacokinetic properties, fed vs fasted",[2]; 100 mg/kg oral,No statistically significant differences
same,epimerization in vivo (chiral column),[3]; dog plasma,did not provide any evidence of epimerization
same,half-life,"[3]; dog, plasma, male dogs, 10 mg/kg oral gavage, read-out: median t1/2 (converted)",84 min
same,tmax,"[3]; male dogs, 3 mg/kg IV bolus",about 5 minutes
same,average oral Cmax,[3]; [5],12 µg/mL
same,tmax,[3]; [5],about 1 hour
same,mean oral bioavailability,"[3]; male dogs, 10 mg/kg oral vs 3 mg/kg IV",72%
same,Average Compound 1 Concentration in Dog Plasma,"[4]; 250 mg/kg PO (Dose 1; Day 1), 0.5 h, F",28 µg/mL
same,Average Compound 1 Concentration in Dog Plasma,"[4]; 250 mg/kg PO (Dose 1; Day 1), 0.5 h, M",71 µg/mL
same,Average Compound 1 Concentration in Dog Plasma,"[4]; 250 mg/kg PO (Dose 1; Day 1), 1 h, F",54 µg/mL
same,Average Compound 1 Concentration in Dog Plasma,"[4]; 250 mg/kg PO (Dose 1; Day 1), 1 h, M",110 µg/mL
same,Average Compound 1 Concentration in Dog Plasma,"[4]; 250 mg/kg PO (Dose 1; Day 1), 2 h, F",46 µg/mL
same,Average Compound 1 Concentration in Dog Plasma,"[4]; 250 mg/kg PO (Dose 1; Day 1), 2 h, M",91 µg/mL
same,Average Compound 1 Concentration in Dog Plasma,"[4]; 350 mg/kg PO (Dose 3; Day 9), 0.5 h, F",67 µg/mL
same,Average Compound 1 Concentration in Dog Plasma,"[4]; 350 mg/kg PO (Dose 3; Day 9), 0.5 h, M",134 µg/mL
same,Average Compound 1 Concentration in Dog Plasma,"[4]; 350 mg/kg PO (Dose 3; Day 9), 1 h, F",154 µg/mL
same,Average Compound 1 Concentration in Dog Plasma,"[4]; 350 mg/kg PO (Dose 3; Day 9), 1 h, M",220 µg/mL
same,Average Compound 1 Concentration in Dog Plasma,"[4]; 350 mg/kg PO (Dose 3; Day 9), 2 h, F",119 µg/mL
same,Average Compound 1 Concentration in Dog Plasma,"[4]; 350 mg/kg PO (Dose 3; Day 9), 2 h, M",153 µg/mL
same,Average Compound 1 Concentration in Dog Plasma,"[4]; 500 mg/kg PO (Dose 2; Day 4), 0.5 h, F",87 µg/mL
same,Average Compound 1 Concentration in Dog Plasma,"[4]; 500 mg/kg PO (Dose 2; Day 4), 0.5 h, M",111 µg/mL
same,Average Compound 1 Concentration in Dog Plasma,"[4]; 500 mg/kg PO (Dose 2; Day 4), 1 h, F",136 µg/mL
same,Average Compound 1 Concentration in Dog Plasma,"[4]; 500 mg/kg PO (Dose 2; Day 4), 1 h, M",191 µg/mL
same,Average Compound 1 Concentration in Dog Plasma,"[4]; 500 mg/kg PO (Dose 2; Day 4), 2 h, F",124 µg/mL
same,Average Compound 1 Concentration in Dog Plasma,"[4]; 500 mg/kg PO (Dose 2; Day 4), 2 h, M",193 µg/mL
same,tolerability,"[4]; dogs, single oral (gavage) dose of 500 mg/kg, emesis in three of the four dosed animals",not tolerated
same,stability in plasma,stability in plasma,stable
same,inhibition,OATP1B3,does not inhibit
same,inhibition,OAT3,weakly inhibits
same,effect on normal sensation,normal sensation,does not alter normal sensation
